Test results reported in patent publication US20260325685A1, “Radiopharmaceutical Compositions Targeting Carbonic Anhydrase IX and Uses Thereof” (RayzeBio, Inc., priority 2023, published 2026).
Where two headings read alike, the source gives them in different places.

Key:
human CA-XII = molecular target: T1, human CA-XII (Homo sapiens, UniProt O43570); assay: Surface Plasmon Resonance (SPR) binding kinetics to recombinant human CA-XII (Biacore 8K, single-cycle kinetics, 1:1 binding model)
T1 construct: purchased Creative BioMart CA12-261H
T1 sequence (O43570 25-354): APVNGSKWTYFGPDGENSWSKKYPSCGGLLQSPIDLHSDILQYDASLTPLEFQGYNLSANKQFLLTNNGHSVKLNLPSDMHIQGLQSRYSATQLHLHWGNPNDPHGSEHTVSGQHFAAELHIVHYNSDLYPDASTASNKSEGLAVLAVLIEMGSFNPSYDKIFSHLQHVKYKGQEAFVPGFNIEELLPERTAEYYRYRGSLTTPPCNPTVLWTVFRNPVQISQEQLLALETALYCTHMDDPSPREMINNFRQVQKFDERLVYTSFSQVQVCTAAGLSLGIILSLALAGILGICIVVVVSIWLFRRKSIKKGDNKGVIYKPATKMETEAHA
Outline: (§1)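 Proteins were captured on streptavidin chips at 1200-1800 RU (CA-IX 180 s, CA-XII 75 s injection). Compound was run at 9 concentrations (100-0.39 nM) in PBS-P+ pH 7.4 with 1% DMSO, 120 s association, 1200 s dissociation, 25° C. Rate constants came from reference- and DMSO-corrected curves.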

human CA-IX = molecular target: T2, human CA-IX (Homo sapiens, UniProt Q16790); assay: Surface Plasmon Resonance (SPR) binding kinetics to recombinant human CA-IX (Biacore 8K, single-cycle kinetics, 1:1 binding model)
T2 construct: purchased Acro CA9-H82E3
Outline: as §1

[1] = Chelated Metal: Lu-175, 25° C., pH 7.4, read-out: CAXII KD
[2] = Chelated Metal: Lu-175; SPR, 25° C., pH 7.4; read-out: CAIX KD

Structure (SMILES) | Kd (human CA-XII; [1]) [nM] | Kd (human CA-IX; [2]) [nM] | other results
NS(=O)(=O)c1nnc(NC(=O)C23CC(c4cn(CCNC(=O)[C@@H]5CN(C(=O)CN6CCN(CC(=O)O)CCN(CC(=O)O)CCN(CC(=O)O)CC6)CCN5C(=O)CNC(=O)C5(C(=O)O)CCN(C(=O)Cc6ccc(C7CC7)cc6)CC5)nn4)(C2)C3)s1.[Lu+3] [Compound 112.12] | > 10 | 1 to 2.5 | –
NS(=O)(=O)c1nnc(NC(=O)C23CC(c4cn(CCNC(=O)[C@@H]5CN(C(=O)CN6CCN(CC(=O)O)CCN(CC(=O)O)CCN(CC(=O)O)CC6)CCN5C(=O)C[C@H](NC(=O)C[C@H](NC(=O)c5ccc(C6(C(F)(F)F)CC6)cn5)C(=O)O)C(=O)O)nn4)(C2)C3)s1.[Lu+3] [Compound 109.25] | 2.5 to 10 | < 1 | –
CC(CCC(=O)N[C@@H](CC(=O)N[C@@H](CC(=O)N[C@@H](CCCn1cc(C23CCC(C(=O)Nc4nnc(S(N)(=O)=O)s4)(CC2)CC3)nn1)C(=O)NCCOCCOCCNC(=O)CN1CCN(CC(=O)O)CCN(CC(=O)O)CCN(CC(=O)O)CC1)C(=O)O)C(=O)O)(c1ccc(O)cc1)c1ccc(O)cc1.[Lu+3] [Compound 100.7] | 1 to 2.5 | < 1 | –
CC(CCC(=O)N1CCC[C@@H]1C(=O)N[C@@H](CC(=O)N1CCN(C(=O)CN2CCN(CC(=O)O)CCN(CC(=O)O)CCN(CC(=O)O)CC2)C[C@@H]1C(=O)NCCn1cc(C23CC(C(=O)Nc4nnc(S(N)(=O)=O)s4)(C2)C3)nn1)C(=O)O)(c1ccc(O)cc1)c1ccc(O)cc1.[Lu+3] [Compound 108.5] | > 10 | 2.5 to 10 | –
NS(=O)(=O)c1nnc(NC(=O)C23CC(c4cn(CCNC(=O)[C@@H]5CN(C(=O)CN6CCN(CC(=O)O)CCN(CC(=O)O)CCN(CC(=O)O)CC6)CCN5C(=O)C[C@H](NC(=O)C[C@H](NC(=O)c5n[nH]c6ccc(F)cc56)C(=O)O)C(=O)O)nn4)(C2)C3)s1.[Lu+3] [Compound 109.15] | 2.5 to 10 | < 1 | –
CC(CCCC(=O)N1CCC(C(N)=O)(C(=O)NCC(=O)N2CCN(C(=O)CN3CCN(CC(=O)O)CCN(CC(=O)O)CC3)C[C@H]2C(=O)NCCn2cc(C34CC(C(=O)Nc5nnc(S(N)(=O)=O)s5)(C3)C4)nn2)CC1)(c1ccc(O)cc1)c1ccc(O)cc1.[Cu+2] [Compound 126] | – | – | Kd (human CA-XII; Chelated Metal: Cu (cold), 25° C., pH 7.4, read-out: CAXII KD): > 10 nM; Kd (human CA-IX; Chelated Metal: Cu (cold); SPR, 25° C., pH 7.4; read-out: CAIX KD): < 1 nM
NS(=O)(=O)c1nnc(NC(=O)C23CCC(c4cn(CCNC(=O)[C@@H]5CN(C(=O)CCCc6ccc(O)cc6)CCN5C(=O)CC[C@H](NC(=O)C[C@H](NC(=O)CN5CCN(CC(=O)O)CCN(CC(=O)O)CCN(CC(=O)O)CC5)C(=O)O)C(=O)O)nn4)(CC2)CC3)s1.[Lu+3] [Compound 132] | – | – | Kd (human CA-XII; read-out: CAXII KD, Chelated Metal: Lu-175, 25° C., pH 7.4): 1 to 2.5 nM; Kd (human CA-IX; read-out: CAIX KD; Chelated Metal: Lu-175; SPR, 25° C., pH 7.4): < 1 nM
CC(CCC(=O)N[C@@H](CC(=O)N[C@@H](CNC(=O)N1CCN(C(=O)CN2CCN(CC(=O)O)CCN(CC(=O)O)CCN(CC(=O)O)CC2)C[C@H]1C(=O)NCCn1cc(C23CC(C(=O)Nc4nnc(S(N)(=O)=O)s4)(C2)C3)nn1)C(=O)O)C(=O)O)(c1ccc(O)cc1)c1ccc(O)cc1.[Lu+3] [Compound 107.55] | 2.5 to 10 | < 1 | –
NS(=O)(=O)c1nnc(NC(=O)C23CC(c4cn(CCNC(=O)[C@@H]5CN(C(=O)CN6CCN(CC(=O)O)CCN(CC(=O)O)CCN(CC(=O)O)CC6)CCN5C(=O)C[C@H](Nc5ncc(C(=O)NCc6n[nH]c7ccccc67)cn5)C(=O)O)nn4)(C2)C3)s1.[Lu+3] [Compound 111.10] | > 10 | 2.5 to 10 | –
NS(=O)(=O)c1nnc(NC(=O)C23CC(c4cn(CCNC(=O)[C@@H]5CN(C(=O)CN6CCN(CC(=O)O)CCN(CC(=O)O)CCN(CC(=O)O)CC6)CCN5C(=O)C[C@H](NC(=O)C[C@H](NCC5CC5)C(=O)O)C(=O)O)nn4)(C2)C3)s1.[Lu+3] [Compound 109.29] | > 10 | 2.5 to 10 | –
CC(CCC(=O)N[C@@H](CC(=O)N[C@@H](CCC(=O)N1CCN(C(=O)CN2CCN(CC(=O)O)CCN(CC(=O)O)CCN(CC(=O)O)CC2)C[C@@H]1C(=O)NCCn1cc(C23CC(C(=O)Nc4nnc(S(N)(=O)=O)s4)(C2)C3)nn1)C(=O)O)C(=O)O)(c1ccc(O)cc1)c1ccc(O)cc1.[Lu+3] [Compound 107.13] | > 10 | 1 to 2.5 | –
